One test has as its target human TLR8 (Homo sapiens (Human), UniProt Q9NR97). Kind of test: TLR8 inhibition reporter assay (HEK-Blue SEAP reporter, R848 stimulation).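 Note: SEAP driven by IFN-β minimal promoter with NF-κB and AP-1 sites, 22 h incubation, compounds 0.05 nM–50 µM, inhibition scaled between agonist plus DMSO and reference inhibitor wells.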 The following applies: read-out: TLR8 IC50; HEK-Blue cells overexpressing human TLR8, R848 15.9 μM, SEAP reporter.
The next test concerns the target human TLR9 (Homo sapiens (Human), UniProt Q9NR96). Kind of test: TLR9 inhibition reporter assay (HEK-Blue SEAP reporter, ODN2006 stimulation).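 Note: SEAP reporter under IFN-β minimal promoter with five NF-κB and AP-1 sites, 22 h incubation, compounds 0.05 nM–50 µM, inhibition relative to agonist plus DMSO versus known inhibitor.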 The following applies: read-out: TLR9 IC50; HEK-Blue cells overexpressing human TLR9, ODN2006 5 nM, SEAP reporter.
The target in the next test is human TLR7 (Homo sapiens (Human), UniProt Q9NYK1). Kind of test: TLR7 inhibition reporter assay (HEK-Blue SEAP reporter, gardiquimod stimulation). Format: cell-based. The following applies: HEK-Blue cells overexpressing human TLR7, gardiquimod 7.5 μM.
human TLR7, sequence (Q9NYK1 27-1049): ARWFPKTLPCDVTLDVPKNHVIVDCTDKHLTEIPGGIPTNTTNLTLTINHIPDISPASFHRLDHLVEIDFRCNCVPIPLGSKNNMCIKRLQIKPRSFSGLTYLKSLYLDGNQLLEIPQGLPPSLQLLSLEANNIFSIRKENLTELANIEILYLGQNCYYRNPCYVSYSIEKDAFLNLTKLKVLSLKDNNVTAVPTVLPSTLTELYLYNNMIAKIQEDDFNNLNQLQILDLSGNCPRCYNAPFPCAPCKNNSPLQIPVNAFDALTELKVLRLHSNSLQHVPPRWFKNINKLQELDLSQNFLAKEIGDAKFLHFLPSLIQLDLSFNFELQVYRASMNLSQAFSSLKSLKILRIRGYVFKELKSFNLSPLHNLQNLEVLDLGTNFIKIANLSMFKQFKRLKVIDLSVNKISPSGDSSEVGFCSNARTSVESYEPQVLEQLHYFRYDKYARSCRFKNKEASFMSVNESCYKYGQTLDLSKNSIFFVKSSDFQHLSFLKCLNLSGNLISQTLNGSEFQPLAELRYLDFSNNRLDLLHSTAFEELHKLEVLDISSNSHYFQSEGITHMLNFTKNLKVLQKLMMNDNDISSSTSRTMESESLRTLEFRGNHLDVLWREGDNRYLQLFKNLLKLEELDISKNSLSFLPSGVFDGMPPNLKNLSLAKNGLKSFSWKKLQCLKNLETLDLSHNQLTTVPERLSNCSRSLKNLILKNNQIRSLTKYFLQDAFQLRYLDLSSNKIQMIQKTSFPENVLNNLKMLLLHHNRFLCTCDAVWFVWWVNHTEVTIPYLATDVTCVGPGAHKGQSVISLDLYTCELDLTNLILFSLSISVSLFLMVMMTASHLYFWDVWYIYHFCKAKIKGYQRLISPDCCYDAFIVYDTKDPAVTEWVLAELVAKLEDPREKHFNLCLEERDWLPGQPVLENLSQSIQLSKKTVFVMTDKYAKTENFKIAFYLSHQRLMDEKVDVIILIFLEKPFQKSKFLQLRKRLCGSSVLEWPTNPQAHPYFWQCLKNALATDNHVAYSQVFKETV

human TLR8, sequence (Q9NR97 27-1041): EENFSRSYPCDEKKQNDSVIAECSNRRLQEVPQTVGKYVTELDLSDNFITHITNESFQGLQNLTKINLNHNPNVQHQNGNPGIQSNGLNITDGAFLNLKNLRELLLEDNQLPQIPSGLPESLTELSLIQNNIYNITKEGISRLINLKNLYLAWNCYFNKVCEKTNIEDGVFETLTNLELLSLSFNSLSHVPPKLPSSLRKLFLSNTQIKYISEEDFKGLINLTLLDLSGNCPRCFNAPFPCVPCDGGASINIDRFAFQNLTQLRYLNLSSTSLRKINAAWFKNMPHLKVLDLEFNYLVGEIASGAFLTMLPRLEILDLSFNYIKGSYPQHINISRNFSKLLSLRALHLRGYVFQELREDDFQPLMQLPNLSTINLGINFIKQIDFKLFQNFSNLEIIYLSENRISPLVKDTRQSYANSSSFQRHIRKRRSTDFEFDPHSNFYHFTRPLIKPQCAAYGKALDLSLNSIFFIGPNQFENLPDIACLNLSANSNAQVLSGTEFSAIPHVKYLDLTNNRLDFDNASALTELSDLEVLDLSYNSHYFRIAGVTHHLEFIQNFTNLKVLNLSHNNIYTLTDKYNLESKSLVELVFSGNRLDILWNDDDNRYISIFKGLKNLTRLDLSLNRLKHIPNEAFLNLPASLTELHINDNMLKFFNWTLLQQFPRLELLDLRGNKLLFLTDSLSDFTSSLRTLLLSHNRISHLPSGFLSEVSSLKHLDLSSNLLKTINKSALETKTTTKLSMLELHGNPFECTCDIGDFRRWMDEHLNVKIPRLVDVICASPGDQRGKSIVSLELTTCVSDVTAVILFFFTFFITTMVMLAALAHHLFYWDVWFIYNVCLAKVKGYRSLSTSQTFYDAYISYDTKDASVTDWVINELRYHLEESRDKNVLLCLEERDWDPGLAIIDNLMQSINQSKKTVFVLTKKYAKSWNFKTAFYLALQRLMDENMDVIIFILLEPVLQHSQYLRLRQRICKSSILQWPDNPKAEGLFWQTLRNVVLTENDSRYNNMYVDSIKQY
human TLR9, sequence (Q9NR96 26-1032): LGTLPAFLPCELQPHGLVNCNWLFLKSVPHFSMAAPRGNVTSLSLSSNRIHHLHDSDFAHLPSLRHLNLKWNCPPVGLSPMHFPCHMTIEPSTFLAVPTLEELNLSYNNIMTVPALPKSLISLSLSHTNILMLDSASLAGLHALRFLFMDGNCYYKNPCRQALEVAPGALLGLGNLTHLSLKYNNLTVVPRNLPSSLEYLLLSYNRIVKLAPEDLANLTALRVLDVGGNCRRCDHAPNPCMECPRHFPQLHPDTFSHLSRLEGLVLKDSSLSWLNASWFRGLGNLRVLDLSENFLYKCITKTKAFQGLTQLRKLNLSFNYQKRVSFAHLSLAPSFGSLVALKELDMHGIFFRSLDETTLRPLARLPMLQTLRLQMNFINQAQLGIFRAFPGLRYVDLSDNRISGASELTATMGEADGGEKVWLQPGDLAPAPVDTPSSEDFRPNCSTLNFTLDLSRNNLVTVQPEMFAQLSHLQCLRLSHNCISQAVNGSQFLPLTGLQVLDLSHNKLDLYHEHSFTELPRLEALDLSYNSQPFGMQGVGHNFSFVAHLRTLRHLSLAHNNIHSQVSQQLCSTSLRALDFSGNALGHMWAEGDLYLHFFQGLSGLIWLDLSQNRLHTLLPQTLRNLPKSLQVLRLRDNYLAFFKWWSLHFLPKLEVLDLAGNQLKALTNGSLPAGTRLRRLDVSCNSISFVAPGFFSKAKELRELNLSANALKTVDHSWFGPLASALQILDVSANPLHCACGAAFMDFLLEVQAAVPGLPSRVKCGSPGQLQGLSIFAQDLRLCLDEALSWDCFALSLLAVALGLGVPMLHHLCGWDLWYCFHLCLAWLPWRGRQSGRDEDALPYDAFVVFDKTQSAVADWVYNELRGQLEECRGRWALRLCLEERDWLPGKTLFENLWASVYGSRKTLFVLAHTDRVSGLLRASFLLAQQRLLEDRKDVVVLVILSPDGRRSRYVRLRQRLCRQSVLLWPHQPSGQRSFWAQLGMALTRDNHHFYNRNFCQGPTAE

On to `Cc1cc(-c2[nH]c3ccc(C(C)(C)C(=O)N4CC5CN(C)CC5C4)cc3c2C(C)C)ccn1` (stereo not drawn) [Example 149, 2-(3-isopropyl-2-(2-methylpyridin-4-yl)-1H-indol-5-yl)-2-methyl-1-(5-methylhexahydropyrrolo[3,4-c]pyrrol-2(1H)-yl)propan-1-one], for which the IC50 was 277 nM on human TLR8, 3050 nM on human TLR9 and 17 nM on human TLR7.
The matching figures for `Cc1cc(-c2[nH]c3ccc(C(C)(C)C(=O)N4CCC5(CCN(C)C5)CC4)cc3c2C(C)C)ccn1` [Example 150, 2-(3-isopropyl-2-(2-methylpyridin-4-yl)-1H-indol-5-yl)-2-methyl-1-(2-methyl-2,8-diazaspiro[4.5]decan-8-yl)propan-1-one]: 141 nM, 1490 nM and 22 nM.
For `Cc1cc(-c2[nH]c3ccc(C(C)(C)C(=O)N4CCC(CN)C4)cc3c2C(C)C)ccn1` (stereo not drawn) [Example 151, 1-(3-(aminomethyl)pyrrolidin-1-yl)-2-(3-isopropyl-2-(2-methylpyridin-4-yl)-1H-indol-5-yl)-2-methylpropan-1-one] the same measures were 175 nM, 7090 nM and 72 nM.
The matching figures for `Cc1cc(-c2[nH]c3ccc(C(C)(C)C(=O)N4CCCC5(CCCCC5N)C4)cc3c2C(C)C)ccn1` (stereo not drawn) [Example 152, 1-(7-amino-2-azaspiro[5.5]undecan-2-yl)-2-(3-isopropyl-2-(2-methylpyridin-4-yl)-1H-indol-5-yl)-2-methylpropan-1-one]: 46 nM, 2640 nM and 31 nM.
Regarding `Cc1cc(-c2[nH]c3ccc(C(C)(C)C(=O)N4CCC(N)CC4)cc3c2C(C)C)ccn1` [Example 153, 1-(4-aminopiperidin-1-yl)-2-(3-isopropyl-2-(2-methylpyridin-4-yl)-1H-indol-5-yl)-2-methylpropan-1-one], the IC50 at human TLR8 worked out at 91 nM; at human TLR9, 566 nM; at human TLR7, 159 nM.
The matching figures for `Cc1cc(-c2[nH]c3ccc(C(C)(C)C(=O)N4CCC[C@H](N)C4)cc3c2C(C)C)ccn1` [Example 155, (S)-1-(3-aminopiperidin-1-yl)-2-(3-isopropyl-2-(2-methylpyridin-4-yl)-1H-indol-5-yl)-2-methylpropan-1-one]: 143 nM, 2040 nM and 113 nM.
The matching figures for `Cc1cc(-c2[nH]c3ccc(C(C)(C)C(=O)N4CCCC(CN)C4)cc3c2C(C)C)ccn1` (stereo not drawn) [Example 156, 1-(3-(aminomethyl)piperidin-1-yl)-2-(3-isopropyl-2-(2-methylpyridin-4-yl)-1H-indol-5-yl)-2-methylpropan-1-one]: 52 nM, 927 nM and 53 nM.
The matching figures for `Cc1cc(-c2[nH]c3ccc(C(C)(C)C(=O)N4CCCCC4CN)cc3c2C(C)C)ccn1` (stereo not drawn) [Example 157, 1-(2-(aminomethyl)piperidin-1-yl)-2-(3-isopropyl-2-(2-methylpyridin-4-yl)-1H-indol-5-yl)-2-methylpropan-1-one]: 28 nM, 997 nM and 6.3 nM.
As to `Cc1cc(-c2[nH]c3ccc(C(C)(C)C(=O)N4CCC(CN)CC4)cc3c2C(C)C)ccn1` [Example 158, 1-(4-(aminomethyl)piperidin-1-yl)-2-(3-isopropyl-2-(2-methylpyridin-4-yl)-1H-indol-5-yl)-2-methylpropan-1-one], the IC50 was found to be 500 nM at human TLR8, 3030 nM at human TLR9 and 79 nM at human TLR7.
For `Cc1cc(-c2[nH]c3ccc(C(C)(C)C(=O)NCC4CCCCN4)cc3c2C(C)C)ccn1` (stereo not drawn) [Example 159, 2-(3-isopropyl-2-(2-methylpyridin-4-yl)-1H-indol-5-yl)-2-methyl-N-(piperidin-2-ylmethyl)propanamide] the same measures were 18 nM, 855 nM and 139 nM.
For `Cc1cc(-c2[nH]c3ccc(C(C)(C)C(=O)NC[C@H]4CCNC4)cc3c2C(C)C)ccn1` [Example 160, (S)-2-(3-isopropyl-2-(2-methylpyridin-4-yl)-1H-indol-5-yl)-2-methyl-N-(pyrrolidin-3-ylmethyl)propanamide] the same measures were 1030 nM, 5090 nM and 164 nM.
For `Cc1cc(-c2[nH]c3ccc(C(C)(C)C(=O)N(C)C4CCCNC4)cc3c2C(C)C)ccn1` (stereo not drawn) [Example 161, 2-(3-isopropyl-2-(2-methylpyridin-4-yl)-1H-indol-5-yl)-N,2-dimethyl-N-(piperidin-3-yl)propanamide] the same measures were 31 nM, 1740 nM and 42 nM.
With `Cc1cc(-c2[nH]c3ccc(C(C)(C)C(=O)N(C)C4CN5CCC4CC5)cc3c2C(C)C)ccn1` (stereo not drawn) [Example 162, 2-(3-isopropyl-2-(2-methylpyridin-4-yl)-1H-indol-5-yl)-N,2-dimethyl-N-(quinuclidin-3-yl)propanamide], the IC50 came out at 135 nM at human TLR8, 3520 nM at human TLR9 and 24 nM against human TLR7.
The matching figures for `Cc1cc(-c2[nH]c3ccc(C(C)(C)C(=O)NCC4CCCNC4)cc3c2C(C)C)ccn1` (stereo not drawn) [Example 163, 2-(3-isopropyl-2-(2-methylpyridin-4-yl)-1H-indol-5-yl)-2-methyl-N-(piperidin-3-ylmethyl)propanamide]: 676 nM, 1880 nM and 238 nM.
The matching figures for `Cc1cc(-c2[nH]c3ccc(C(C)(C)C(=O)NCC4CCNCC4)cc3c2C(C)C)ccn1` [Example 164, 2-(3-isopropyl-2-(2-methylpyridin-4-yl)-1H-indol-5-yl)-2-methyl-N-(piperidin-4-ylmethyl)propanamide]: 617 nM, 2530 nM and 331 nM.
For `Cc1cc(-c2[nH]c3ccc(C(C)(C)C(=O)N(C)C4CCNCC4)cc3c2C(C)C)ccn1` [Example 165, 2-(3-isopropyl-2-(2-methylpyridin-4-yl)-1H-indol-5-yl)-N,2-dimethyl-N-(piperidin-4-yl)propanamide] the same measures were 63 nM, 908 nM and 61 nM.
For `Cc1cc(-c2[nH]c3ccc(C(C)(C)C(=O)NC4C[C@H]5CC[C@@H](C4)N5C)cc3c2C(C)C)ccn1` (stereo partly drawn) [Example 166, 2-(3-isopropyl-2-(2-methylpyridin-4-yl)-1H-indol-5-yl)-2-methyl-N-((1R,5S)-8-methyl-8-azabicyclo[3.2.1]octan-3-yl)propanamide], the results for the half-inhibitory concentration (IC50) on human TLR8, on human TLR9 and against human TLR7 were 135 nM, 8230 nM and 22 nM, respectively.
For `Cc1cc(-c2[nH]c3ccc(C(C)(C)C(=O)NC4CCC(N)CC4)cc3c2C(C)C)ccn1` (stereo not drawn) [Example 167, N-(4-aminocyclohexyl)-2-(3-isopropyl-2-(2-methylpyridin-4-yl)-1H-indol-5-yl)-2-methylpropanamide] the same measures were 36 nM, 2900 nM and 63 nM.
For `Cc1cc(-c2[nH]c3ccc(C(C)(C)C(=O)NC4CCCC(N)C4)cc3c2C(C)C)ccn1` (stereo not drawn) [Example 168, N-(3-aminocyclohexyl)-2-(3-isopropyl-2-(2-methylpyridin-4-yl)-1H-indol-5-yl)-2-methylpropanamide] the same measures were 44 nM, 2670 nM and 96 nM.

The values above are taken from patent publication US11420973B2, “Amide substituted indole compounds useful as TLR inhibitors” (BRISTOL-MYERS SQUIBB COMPANY, priority 2017, dated 2022).
